Source: patent US9763966B2, “Fluocinolone formulations in a biodegradable polymer carrier” (Warsaw Orthopedic, Inc., priority 2008, dated 2017)

Columns and labels:
[1] = tested on: chronic constriction injury (CCI) model of neuropathic pain; test: 2-month chronic constriction injury (CCI) model: mechanical threshold and thermal paw withdrawal latency; format: in vivo; conditions: compared with the fluocinolone implants
Procedure: A 2-month chronic constriction injury (CCI) model of neuropathic pain was used to evaluate different formulations of a corticosteroid, fluocinolone, encapsulated in bioerodable polymers compared to fluocinolone given subcutaneously (SC). Different formulations as provided in Table B below were evaluated for reducing pain-associated behaviors: Thermal paw withdrawal latency was evaluated at baseline 7, 14, 21, 28, 35, 42, 49, and 56 days post-operatively, while mechanical threshold was evaluated at 8, 15, 22, 29, 36, 43, 50, and 57 days post-operatively.
There were seven groups of animals tested. […]
Mechanical allodynia was measured using von Frey monofilaments (Stoelting, Wood Dale, Ill.) with varying stiffness (2.0-15.0 g) on Days 1, 8, 15, 22, 29, 36, 43, 50 and 57 as described previously (see FIGS. 5-6). […] The 50% paw withdrawal threshold response was determined by a sequential increasing and/or decreasing of the stimulus strength (the “up-down method” of Dixon). […] The 50% paw withdrawal threshold was calculated using the formula: 10 (Xf+kd)/10,000, where Xf is the final von Frey filament used (log units), k is a value that analyzes the response pattern (taken from the table published by Chaplan et al.), and d is the mean difference between stimuli (log units). The mean and standard error of the mean (SEM) were determined for each treatment group.

inflammatory response = test: Implant-site observation: resorption of foreign material and encapsulation (FIGS. 9 and 10); format: in vivo; conditions: picture
Text: FIG. 10 is a picture of fluocinolone implants 20 wt % 85/15 PLGA+10% mPEG and 1% wt fluocinolone 100 DL 7E+5% PEG/7% 50/50 PLGA 7A. The foreign and inflammatory material was not resorbed due to lack of inflammatory response mediated by fluocinolone implants.

**Q.** Which results are given for `CC1=C(CC(=O)O)c2cc(F)ccc2/C1=C\c1ccc([S+](C)[O-])cc1` (stereo not drawn) [sulindac]?
**A.** pain control response [1]: very similar pain control response; encapsulation of implant (inflammatory response): did not prevent encapsulation; resorption of foreign and inflammatory material (sutures) (inflammatory response): resorbed
